# Measurements taken from patent US20180245048A1, “METHODS AND COMPOSITIONS FOR EXPANSION AND DIFFERENTIATION OF SKELETAL MUSCLE STEM CELLS OR PROGENITOR CELLS” (AGENCY FOR SCIENCE, TECHNOLOGY AND RESEARCH, priority 2015, published 2018).
# Experiments:
# [1] = tested on: induced pluripotent stem cell-derived myoblasts; experiment: PAX7 mRNA expression in induced pluripotent stem cell-derived myoblasts; format: cell-based, human; details: 20 ng/ml bFGF, 3 μM CHIR99021, 2.5 μg/ml DLL1, alone or combined; vs untreated control (FIG. 1)
# [2] = tested on: induced pluripotent stem cell-derived myotubes; experiment: qPCR screen of myogenic differentiation markers, 70 small molecules; format: cell-based, human; details: for MyoD, MyoG and MYHC (myosin heavy chain) expression: each individually, during drug-induced myogenesis from human iPSC (FIG. 9); for expression of differentiated myocyte markers MYOG, MYHC, MYH3, MYH8 and adult myotube markers MYH7, MYH2, MYH1: screen, vs untreated control (FIG. 9)
# Description: FIG. 9 is a heat map showing the levels of MYOG, MYHC, MYH3, MYH8, MYH7, MYH2, MYH1 expression in induced pluripotent stem cell-derived myotubes after screening with 70 different small molecules related to the metabolomics findings, compared to an untreated control group.
# Thus carnitine to facilitate fatty acid oxidation, the fatty acids linoleate, arachidonate and palmitate to fuel fatty acid oxidation were tested. It was also tested whether statin inhibitors of steroid synthesis, such as fluvastatin, and steroids like testosterone or progesterone could boost human myotube differentiation. Against this background, a variety of other small molecule drugs and metabolites were also screened, including OxPhos inhibitors and vitamins, to test their effects on myotube differentiation. A qPCR screen was then performed for various myogenic differentiation markers on human induced pluripotent stem cell-derived myoblasts exposed to these 70 conditions (FIG. 9).
# [3] = tested on: human induced pluripotent stem cell-derived myoblasts; experiment: qPCR screen of lineage markers (OCT3/4, NCAM, AFP, PAX7), 70 small molecules; format: cell-based; details: vs untreated control (FIG. 3); for PAX7 mRNA expression: during FGF/Wnt/Notch-induced myogenesis
# Description: FIG. 3 is a heat map showing the levels of OCT3/4, NCAM, AFP and PAX7 mRNA expression in induced pluripotent stem cell-derived myoblasts after screening with 70 different small molecules related to the metabolomics findings, compared to an untreated control group.
# Thus, the adenylyl cyclase agonist Forskolin was tested to induce cAMP synthesis, and cobalamin was administered to see if these compounds boosted the expansion of human myoblasts. It was also tested whether glutamine, hypoxanthine and thymidine—all of which are rate-limiting for nucleotide synthesis—could boost human myoblast expansion. Against this background, a variety of other small molecule drugs and metabolites were screened, including amino acids and fatty acids, thereby testing their effects on myoblast expansion. A real-time polymerase chain reaction (qPCR) screen was then performed for various lineage markers (pluripotency marker OCT3/4, neuromuscular marker NCAM, endoderm marker AFP, muscle marker Pax7) on human induced pluripotent stem cell-derived myoblasts exposed to these 70 conditions (FIG. 3).
Compound,"MyoD, MyoG and MYHC (myosin heavy chain) expression [2]","expression of differentiated myocyte markers MYOG, MYHC, MYH3, MYH8 and adult myotube markers MYH7, MYH2, MYH1 [2]",PAX7 mRNA expression [3],further results
"Cc1cnc(-c2cnc(NCCNc3ccc(C#N)cn3)nc2-c2ccc(Cl)cc2Cl)[nH]1 [CHIR99021, 6-[[2-[[4-(2,4-dichlorophenyl)-5-(5-methyl-1H-imidazol-2-yl)-2 pyrimidinyl]amino]ethyl]amino]-3-pyridinecarbonitrile, reference compound]",–,–,–,PAX7 mRNA expression [1]: increase in PAX7 expression
CC(=O)OC(CC(=O)[O-])C[N+](C)(C)C (centres unmarked) [O-acetyl-carnitine],specifically increase,–,–,–
C[N+](C)(C)CC(O)CC(=O)[O-] (centres unmarked) [carnitine],specifically increase,increase expression,–,–
NC(=O)CC[C@H](N)C(=O)O [glutamine],–,–,specifically increase,AFP (endoderm marker) mRNA expression [3]: without increasing; NCAM (neuromuscular marker) mRNA expression [3]: increase; OCT3/4 (pluripotency marker) mRNA expression [3]: without increasing
O=c1[nH]cnc2nc[nH]c12 [hypoxanthine],–,–,specifically increase,–
CCCCC/C=C\C/C=C\CCCCCCCC(=O)O [linoleic acid],specifically increase,increase expression,–,–
"C[C@]12CC[C@H]3[C@@H](CCC4=CC(=O)CC[C@@]43C)[C@@H]1CC[C@@H]2O [testosterone, reference compound]",specifically increase,increase expression,–,–
Cc1cn([C@H]2C[C@H](O)[C@@H](CO)O2)c(=O)[nH]c1=O [thymidine],–,–,specifically increase,–
"bFGF: FGF2 (basic fibroblast growth factor), FGF signalling agonist",–,–,–,PAX7 mRNA expression [1]: increase in PAX7 expression
cobalamin [vitamin B12],–,–,increase,PAX7 mRNA expression ([3]; listed as cobalamin): specifically increase; AFP (endoderm marker) mRNA expression [3]: without increasing; NCAM (neuromuscular marker) mRNA expression [3]: increase; OCT3/4 (pluripotency marker) mRNA expression [3]: without increasing
